Read-outs that look alike come from different tables or passages of the source.
Tests used:
HepG2 cells [1] = assay: HepG2 cytotoxicity assay
Method in brief: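 Cells at 2,500 per well in MEM with 10% fetal bovine serum and 1% NEAA were exposed to test compounds for 48 h at 37°C, 5% CO2. Viability was read by fluorescence, with percent inhibition calculated against 50 μM doxorubicin (positive) and DMSO (negative) controls.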

[2] = system: P. falciparum late stage (stages IV-V) gametocytes; set-up: method as in Almela et al 2016; conditions: ref Almela et al 2016, read-out: Pf GCT ATP IC50, cited from earlier work
[3] = system: P. falciparum female gametocytes; set-up: method as in Miguel-Blanco et al 2017; conditions: ref Miguel-Blanco et al 2017, read-out: Pf FGAA IC50, cited from earlier work
HepG2 cells [4] = conditions: cited from earlier work
[5] = system: P. falciparum female gametocytes; assay: P. falciparum female gametogenesis assay (Pf FGAA); conditions: 1: YES; 0: NO
[6] = system: P. falciparum late stage (stages IV-V) gametocytes; assay: P. falciparum late stage gametocyte ATP depletion assay (Pf GC-ATP); conditions: 1: YES; 0: NO
[7] = HepG2 cytotoxicity unified across the three screens
[8] = value reported with the Pf FGAA screen, ref Miguel-Blanco et al 2017
[9] = value reported with the Pf GCT ATP screen, ref Almela et al 2016
[10] = HepG2 values of the three screens unified

| SMILES | Unified cytotox (HepG2 cells [1]; [7]) | IC50 ([2]; TCAMS screen comparison) | IC50 ([3]; TCAMS screen comparison) | HepG2 cytoxicity (HepG2 cells [4]; [8]) | HepG2 cytoxicity (HepG2 cells [4]; [9]) | Is compound selective in assay? Pf FGAA active? [5] | Is compound selective in assay? Pf GC-ATP active? [6] | Unified cytotox (HepG2 cells [1]; [10]) | IC50 [2] | IC50 [3] | HepG2 cytoxicity (Pf GCT ATP screen) (HepG2 cells [4]; ref Almela et al 2016) | HepG2 cytoxicity (Pf FGAA screen) (HepG2 cells [4]; ref Miguel-Blanco et al 2017) |
| --- | --- | --- | --- | --- | --- | --- | --- | --- | --- | --- | --- | --- |
| COc1ccc2cc(CNCCCCCCNCc3ccc4cc(OC)ccc4c3)ccc2c1.CS(=O)(=O)O [TCMDC-137797] | 2.27 µM | 670 nM | 590 nM | 1.55 µM | 3 µM | 0 (0: NO) | 0 (0: NO) | – | – | – | – | – |
| c1cc(C2=N[C@H]3CCCC[C@@H]3N2)ccc1OCCCOc1ccc(C2=N[C@@H]3CCCC[C@H]3N2)cc1 [TCMDC-137803] | 38.02 µM | 470 nM | 11500 nM | 38.02 µM | >25 µM | 0 (0: NO) | 1 (1: YES) | – | – | – | – | – |
| CS(=O)(=O)O.FC(F)(F)COc1ccc2ccccc2c1CNCCCCCCNCc1c(OCC(F)(F)F)ccc2ccccc12 [TCMDC-137816] | 2.44 µM | 370 nM | 1090 nM | 1.84 µM | 3.04 µM | 0 (0: NO) | 0 (0: NO) | – | – | – | – | – |
| COc1c(OC)c(OC)c2ccccc2c1CNCCCCCCNCc1c(OC)c(OC)c(OC)c2ccccc12.Cl [TCMDC-137827] | 3.08 µM | 1150 nM | 1670 nM | 2.95 µM | 3.2 µM | 0 (0: NO) | 0 (0: NO) | – | – | – | – | – |
| C#CCCOc1ccc2ccccc2c1CNCCCCCCNCc1c(OCCC#C)ccc2ccccc12 [TCMDC-137832] | 5.14 µM | 410 nM | 920 nM | 4.79 µM | 5.5 µM | 0 (0: NO) | 1 (1: YES) | – | – | – | – | – |
| C#CCOc1ccc2ccccc2c1CNCCCCCCNCc1c(OCC#C)ccc2ccccc12.CS(=O)(=O)O [TCMDC-137838] | 3.05 µM | 500 nM | 1050 nM | 2.92 µM | 3.19 µM | 0 (0: NO) | 0 (0: NO) | – | – | – | – | – |
| COc1cc2ccccc2c(OC)c1CCNCCCCNCCc1c(OC)cc2ccccc2c1OC.CS(=O)(=O)O [TCMDC-137842] | – | – | – | – | – | 0 (0: NO) | 1 (1: YES) | 3.68 µM | 310 nM | 1240 nM | 3.2 µM | 4.17 µM |
| CCCCOc1cc(OC)c2ccccc2c1CCNCCCCNCCc1c(OCCCC)cc(OC)c2ccccc12.CS(=O)(=O)O [TCMDC-137845] | – | – | – | – | – | 0 (0: NO) | 0 (0: NO) | 2.49 µM | 500 nM | 760 nM | 3 µM | 1.97 µM |
| CCCCOc1c(CCNCCCCNCCc2cc(OC)c3ccccc3c2OCCCC)cc(OC)c2ccccc12.CS(=O)(=O)O [TCMDC-137848] | – | – | – | – | – | 0 (0: NO) | 1 (1: YES) | 2.54 µM | 80 nM | 610 nM | 3.1 µM | 1.97 µM |
| CS(=O)(=O)O.FC(F)(F)COc1ccc(CNCCCCCCNCc2ccc(OCC(F)(F)F)c3ccccc23)c2ccccc12 [TCMDC-137853] | 2.73 µM | 55 nM | 630 nM | 2.46 µM | 3 µM | 0 (0: NO) | 1 (1: YES) | – | – | – | – | – |
| COc1c(CCNCCCCNCCc2cc(Cl)c3ccccc3c2OC)cc(Cl)c2ccccc12.CS(=O)(=O)O [TCMDC-137869] | – | – | – | – | – | 0 (0: NO) | 1 (1: YES) | 2.57 µM | 80 nM | 330 nM | 3.36 µM | 1.78 µM |
| CN(CCCNCc1ccc2ccccc2c1)CCCNCc1ccc2ccccc2c1.Cl [TCMDC-137908] | – | – | – | – | – | 1 (1: YES) | 1 (1: YES) | 4.85 µM | 50 nM | 90 nM | 4.68 µM | 5.01 µM |
| COc1ccc2ccccc2c1CNCCCCCCNCc1c(OC)ccc2ccccc12.Cl [TCMDC-137915] | – | – | – | – | – | 0 (0: NO) | 1 (1: YES) | 3.90 µM | 250 nM | 700 nM | 3.59 µM | 4.22 µM |
| COc1ccc2c(c1)CC(C)(C)NC2CCCCCCCCC1NC(C)(C)Cc2cc(OC)ccc21.O=C(O)C(=O)O (stereo not shown) [TCMDC-137935] | 5.47 µM | 790 nM | 1470 nM | 5.62 µM | 5.32 µM | 0 (0: NO) | 0 (0: NO) | – | – | – | – | – |
| CCOc1cc(CNCCCCCCNCc2cc(OCC)c(OCC)c3ccccc23)c2ccccc2c1OCC.CS(=O)(=O)O [TCMDC-137939] | – | – | – | – | – | 0 (0: NO) | 0 (0: NO) | 2.35 µM | 750 nM | 1780 nM | 2.7 µM | 2.00 µM |
| COc1cc2ccccc2cc1CCNCCCCNCCc1cc2ccccc2cc1OC.CS(=O)(=O)O [TCMDC-137944] | 2.53 µM | 110 nM | 620 nM | 1.66 µM | 3.39 µM | 0 (0: NO) | 1 (1: YES) | – | – | – | – | – |
| CCCOc1ccc(CCNCCCCNCCc2ccc(OCCC)c3ccccc23)c2ccccc12.CS(=O)(=O)O [TCMDC-137952] | 2.38 µM | 80 nM | 610 nM | 2.16 µM | 2.6 µM | 0 (0: NO) | 1 (1: YES) | – | – | – | – | – |
| COc1ccc2c(OC)c(CNCCCCCCNCc3ccc4cc(OC)ccc4c3OC)ccc2c1.CS(=O)(=O)O [TCMDC-137953] | 2.66 µM | 1540 nM | 1000 nM | 2.11 µM | 3.2 µM | 0 (0: NO) | 0 (0: NO) | – | – | – | – | – |
| CCCCCCOc1ccc2ccccc2c1CNCCCCCCNCc1c(OCCCCCC)ccc2ccccc12.CS(=O)(=O)O [TCMDC-137963] | 2.85 µM | 480 nM | 1500 nM | 2.40 µM | 3.3 µM | 0 (0: NO) | 0 (0: NO) | – | – | – | – | – |
